Data from the supplement of paper PMC10307832.

Assays:
Experiment in all cases: relative viability (nuclei count vs DMSO), 5 days (fraction); higher = more cells survive
[1] = compound: C[C@@]1(C(=O)Nc2ccc(F)nc2)CCCN1c1nc(Nc2cc(C3CC3)n[nH]2)c2cccn2n1 + Cc1nc(Nc2ncc(C(=O)Nc3c(C)cccc3Cl)s2)cc(N2CCN(CCO)CC2)n1 [Dasatinib] (partner 0.075 µM)
Summary of the method: (§1)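 Relative viability equals treated-well nuclei counts divided by vehicle-well nuclei counts. Counts came from 4× images of lung cancer cell lines grown in 1536-well plates for 5 days after pin-tool dosing on the day after seeding. Dosing used one drug alone or a fixed anchor-drug dose plus five library-drug doses (not always all listed) in √10 steps, and values are medians of duplicate plates.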

Motesanib + Pictilisib = compound: CC1(C)CNc2cc(NC(=O)c3cccnc3NCc3ccncc3)ccc21 [Motesanib] + CS(=O)(=O)N1CCN(Cc2cc3nc(-c4cccc5[nH]ncc45)nc(N4CCOCC4)c3s2)CC1 [Pictilisib] (partner 1 µM)
Summary of the method: as §1

Motesanib + Bortezomib = compound: CC1(C)CNc2cc(NC(=O)c3cccnc3NCc3ccncc3)ccc21 [Motesanib] + CC(C)C[C@H](NC(=O)[C@H](Cc1ccccc1)NC(=O)c1cnccn1)B(O)O [Bortezomib] (partner 0.002 µM)
Summary of the method: as §1

Motesanib + Olaparib = compound: CC1(C)CNc2cc(NC(=O)c3cccnc3NCc3ccncc3)ccc21 [Motesanib] + O=C(c1cc(Cc2n[nH]c(=O)c3ccccc23)ccc1F)N1CCN(C(=O)C2CC2)CC1 [Olaparib] (partner 8 µM)
Summary of the method: as §1

Cell Line | relative viability ([1]; first compound 0.04 µM) | relative viability ([1]; first compound 0.1265 µM) | relative viability ([1]; first compound 0.4 µM) | relative viability ([1]; first compound 1.265 µM) | relative viability (Motesanib + Pictilisib; first compound 0.01 µM) | relative viability (Motesanib + Pictilisib; first compound 0.03162 µM) | relative viability (Motesanib + Pictilisib; first compound 0.1 µM) | relative viability (Motesanib + Pictilisib; first compound 0.3162 µM) | relative viability (Motesanib + Pictilisib; first compound 1 µM) | relative viability (Motesanib + Bortezomib; first compound 0.01 µM) | relative viability (Motesanib + Bortezomib; first compound 0.03162 µM) | relative viability (Motesanib + Bortezomib; first compound 0.1 µM) | relative viability (Motesanib + Bortezomib; first compound 0.3162 µM) | relative viability (Motesanib + Bortezomib; first compound 1 µM) | relative viability (Motesanib + Olaparib; first compound 0.01 µM) | relative viability (Motesanib + Olaparib; first compound 0.03162 µM) | relative viability (Motesanib + Olaparib; first compound 0.1 µM) | relative viability (Motesanib + Olaparib; first compound 1 µM) | relative viability (Motesanib + Olaparib; first compound 0.3162 µM)
HCC-78 | 0.421 | 0.269 | 0.256 | 0.184 | 0.182 | 0.198 | 0.174 | 0.207 | 0.182 | 0.44 | 0.375 | 0.667 | 0.549 | 0.385 | 0.938 | 0.789 | 0.655 | 0.834 | –
HCC-366 | 0.374 | 0.141 | 0.201 | 0.061 | 0.145 | 0.149 | 0.139 | 0.139 | 0.137 | 1.06 | 1 | 1.06 | 0.997 | 1.09 | 0.278 | 0.375 | 0.403 | 0.397 | 0.352
HCC-827 | 0.34 | 0.395 | 0.222 | 0.339 | 1.12 | 1.13 | 0.866 | 1.01 | 1.04 | 0.962 | 1.1 | 1.07 | 1.03 | 1.15 | 0.616 | 0.746 | 0.652 | 0.548 | 0.713
HOP-62 | 0.662 | 0.565 | 0.469 | 0.374 | 0.651 | 0.843 | 0.507 | 1.08 | 1.01 | 0.862 | 0.791 | 0.735 | 0.802 | 0.907 | 0.47 | 0.38 | 0.389 | 0.616 | 0.564
IA-LM | – | – | – | – | 0.38 | 0.346 | 0.351 | 0.318 | 0.519 | 0.879 | 0.704 | 0.816 | 0.819 | 0.783 | 0.757 | 0.834 | 0.722 | 0.822 | 0.855
LC-2-ad | 0.363 | 0.328 | 0.235 | 0.196 | 0.449 | 0.593 | 0.479 | 0.568 | 0.421 | 1.02 | 1.03 | 1.04 | 1.14 | 0.942 | 0.689 | 0.709 | 0.816 | 0.785 | 0.733
LCLC-97TM1 | 0.54 | 0.224 | 0.229 | 0.134 | 0.224 | 0.204 | 0.15 | 0.235 | 0.18 | 0.497 | 0.897 | 0.541 | 0.617 | 0.501 | 0.373 | 0.414 | 0.501 | 0.287 | 0.476
LCLC-103H | 0.412 | 0.35 | 0.237 | 0.174 | – | 0.613 | 0.542 | 0.639 | 0.709 | – | 1.02 | 1.16 | 1.03 | 1.07 | 0.777 | 0.737 | 0.758 | 0.742 | 0.807
LK-2 | 0.217 | 0.184 | 0.155 | 0.229 | 0.576 | 0.513 | 0.555 | 0.621 | 0.537 | – | – | – | – | – | 0.644 | 0.94 | 0.608 | 0.756 | 0.817
